Experiment: Stability of cannabinoid compounds and Vitamin E components in Beverage 2 (AB Red) by LCMSMS
Type: physicochemical
Method: The stability of the plant-derived cannabinoid compounds and Vitamin E components of the beverage stored 8° C. and at room temperature (21-25° C.) were monitored, over a period of 570 days via Liquid Chromatography-tandem Mass Spectrometry [LCMSMS, AGilent 6590, C18, 3×50 mm, 2.7 m (Agilent InfinityLab Poroshell 120 EC-C18), Electrospray Ionization detector]. The LCMSMS was calibrated for 0-50 ng/ml cannabinoids with the same resin material used in the preparation of the concentrates. At each time period, 100 ml of beverage was diluted with 10 ml of methanol and injected into the LCMSMS for analysis.

SMILES: C=C(C)[C@@H]1CCC(C)=C[C@H]1c1c(O)cc(CCC)cc1O [CBDV, cannabidivarin]
- Stability of Plant-Derived Cannabinoid Compounds in AB Red (stored at 8° C., 0 days): 0.200 µg/mL
- Stability of Plant-Derived Cannabinoid Compounds in AB Red (stored at 8° C., 1 days): 0.194 µg/mL
- Stability of Plant-Derived Cannabinoid Compounds in AB Red (stored at 8° C., 2 days): 0.197 µg/mL
- Stability of Plant-Derived Cannabinoid Compounds in AB Red (stored at 8° C., 3 days): 0.199 µg/mL
- Stability of Plant-Derived Cannabinoid Compounds in AB Red (stored at 8° C., 5 days): 0.198 µg/mL
- Stability of Plant-Derived Cannabinoid Compounds in AB Red (stored at 8° C., 8 days): 0.198 µg/mL
- Stability of Plant-Derived Cannabinoid Compounds in AB Red (stored at 8° C., 9 days): 0.201 µg/mL
- Stability of Plant-Derived Cannabinoid Compounds in AB Red (stored at 8° C., 10 days): 0.194 µg/mL
- Stability of Plant-Derived Cannabinoid Compounds in AB Red (stored at 8° C., 11 days): 0.195 µg/mL
- Stability of Plant-Derived Cannabinoid Compounds in AB Red (stored at 8° C., 12 days): 0.198 µg/mL
- Stability of Plant-Derived Cannabinoid Compounds in AB Red (stored at 8° C., 15 days): 0.194 µg/mL
- Stability of Plant-Derived Cannabinoid Compounds in AB Red (stored at 8° C., 16 days): 0.195 µg/mL
- Stability of Plant-Derived Cannabinoid Compounds in AB Red (stored at 8° C., 17 days): 0.195 µg/mL
- Stability of Plant-Derived Cannabinoid Compounds in AB Red (stored at 8° C., 18 days): 0.195 µg/mL
- Stability of Plant-Derived Cannabinoid Compounds in AB Red (stored at 8° C., 19 days): 0.199 µg/mL
- Stability of Plant-Derived Cannabinoid Compounds in AB Red (stored at 8° C., 22 days): 0.200 µg/mL
- Stability of Plant-Derived Cannabinoid Compounds in AB Red (stored at 8° C., 23 days): 0.194 µg/mL
- Stability of Plant-Derived Cannabinoid Compounds in AB Red (stored at 8° C., 24 days): 0.197 µg/mL
- Stability of Plant-Derived Cannabinoid Compounds in AB Red (stored at 8° C., 25 days): 0.199 µg/mL
- Stability of Plant-Derived Cannabinoid Compounds in AB Red (stored at 8° C., 26 days): 0.199 µg/mL
- Stability of Plant-Derived Cannabinoid Compounds in AB Red (stored at 8° C., 29 days): 0.197 µg/mL
- Stability of Plant-Derived Cannabinoid Compounds in AB Red (stored at 8° C., 30 days): 0.200 µg/mL
- Stability of Plant-Derived Cannabinoid Compounds in AB Red (stored at 8° C., 60 days): 0.199 µg/mL
- Stability of Plant-Derived Cannabinoid Compounds in AB Red (stored at 8° C., 90 days): 0.196 µg/mL
- Stability of Plant-Derived Cannabinoid Compounds in AB Red (stored at 8° C., 120 days): 0.193 µg/mL
- Stability of Plant-Derived Cannabinoid Compounds in AB Red (stored at 8° C., 150 days): 0.198 µg/mL
- Stability of Plant-Derived Cannabinoid Compounds in AB Red (stored at 8° C., 180 days): 0.192 µg/mL
- Stability of Plant-Derived Cannabinoid Compounds in AB Red (stored at 8° C., 210 days): 0.193 µg/mL
- Stability of Plant-Derived Cannabinoid Compounds in AB Red (stored at 8° C., 240 days): 0.192 µg/mL
- Stability of Plant-Derived Cannabinoid Compounds in AB Red (stored at 8° C., 270 days): 0.195 µg/mL
- Stability of Plant-Derived Cannabinoid Compounds in AB Red (stored at 8° C., 300 days): 0.193 µg/mL
- Stability of Plant-Derived Cannabinoid Compounds in AB Red (stored at 8° C., 330 days): 0.191 µg/mL
- Stability of Plant-Derived Cannabinoid Compounds in AB Red (stored at 8° C., 360 days): 0.193 µg/mL
- Stability of Plant-Derived Cannabinoid Compounds in AB Red (stored at 8° C., 390 days): 0.194 µg/mL
- Stability of Plant-Derived Cannabinoid Compounds in AB Red (stored at 8° C., 420 days): 0.193 µg/mL
- Stability of Plant-Derived Cannabinoid Compounds in AB Red (stored at 8° C., 450 days): 0.195 µg/mL
- Stability of Plant-Derived Cannabinoid Compounds in AB Red (stored at 8° C., 480 days): 0.190 µg/mL
- Stability of Plant-Derived Cannabinoid Compounds in AB Red (stored at 8° C., 510 days): 0.184 µg/mL
- Stability of Plant-Derived Cannabinoid Compounds in AB Red (stored at 8° C., 540 days): 0.185 µg/mL
- Stability of Plant-Derived Cannabinoid Compounds in AB Red (stored at 8° C., 570 days): 0.183 µg/mL
- Stability of Plant-Derived Cannabinoid Compounds in AB Red (stored at 21-25° C., 0 days): 0.20 µg/mL
- Stability of Plant-Derived Cannabinoid Compounds in AB Red (stored at 21-25° C., 1 days): 0.20 µg/mL
- Stability of Plant-Derived Cannabinoid Compounds in AB Red (stored at 21-25° C., 2 days): 0.20 µg/mL
- Stability of Plant-Derived Cannabinoid Compounds in AB Red (stored at 21-25° C., 3 days): 0.20 µg/mL
- Stability of Plant-Derived Cannabinoid Compounds in AB Red (stored at 21-25° C., 5 days): 0.19 µg/mL
- Stability of Plant-Derived Cannabinoid Compounds in AB Red (stored at 21-25° C., 8 days): 0.20 µg/mL
- Stability of Plant-Derived Cannabinoid Compounds in AB Red (stored at 21-25° C., 9 days): 0.20 µg/mL
- Stability of Plant-Derived Cannabinoid Compounds in AB Red (stored at 21-25° C., 10 days): 0.20 µg/mL
- Stability of Plant-Derived Cannabinoid Compounds in AB Red (stored at 21-25° C., 11 days): 0.20 µg/mL
- Stability of Plant-Derived Cannabinoid Compounds in AB Red (stored at 21-25° C., 12 days): 0.20 µg/mL
- Stability of Plant-Derived Cannabinoid Compounds in AB Red (stored at 21-25° C., 15 days): 0.20 µg/mL
- Stability of Plant-Derived Cannabinoid Compounds in AB Red (stored at 21-25° C., 16 days): 0.19 µg/mL
- Stability of Plant-Derived Cannabinoid Compounds in AB Red (stored at 21-25° C., 17 days): 0.20 µg/mL
- Stability of Plant-Derived Cannabinoid Compounds in AB Red (stored at 21-25° C., 18 days): 0.20 µg/mL
- Stability of Plant-Derived Cannabinoid Compounds in AB Red (stored at 21-25° C., 19 days): 0.19 µg/mL
- Stability of Plant-Derived Cannabinoid Compounds in AB Red (stored at 21-25° C., 22 days): 0.20 µg/mL
- Stability of Plant-Derived Cannabinoid Compounds in AB Red (stored at 21-25° C., 23 days): 0.19 µg/mL
- Stability of Plant-Derived Cannabinoid Compounds in AB Red (stored at 21-25° C., 24 days): 0.19 µg/mL
- Stability of Plant-Derived Cannabinoid Compounds in AB Red (stored at 21-25° C., 25 days): 0.19 µg/mL
- Stability of Plant-Derived Cannabinoid Compounds in AB Red (stored at 21-25° C., 26 days): 0.19 µg/mL
- Stability of Plant-Derived Cannabinoid Compounds in AB Red (stored at 21-25° C., 29 days): 0.19 µg/mL
- Stability of Plant-Derived Cannabinoid Compounds in AB Red (stored at 21-25° C., 30 days): 0.20 µg/mL
- Stability of Plant-Derived Cannabinoid Compounds in AB Red (stored at 21-25° C., 60 days): 0.20 µg/mL
- Stability of Plant-Derived Cannabinoid Compounds in AB Red (stored at 21-25° C., 90 days): 0.19 µg/mL
- Stability of Plant-Derived Cannabinoid Compounds in AB Red (stored at 21-25° C., 120 days): 0.19 µg/mL
- Stability of Plant-Derived Cannabinoid Compounds in AB Red (stored at 21-25° C., 150 days): 0.20 µg/mL
- Stability of Plant-Derived Cannabinoid Compounds in AB Red (stored at 21-25° C., 180 days): 0.20 µg/mL
- Stability of Plant-Derived Cannabinoid Compounds in AB Red (stored at 21-25° C., 210 days): 0.19 µg/mL
- Stability of Plant-Derived Cannabinoid Compounds in AB Red (stored at 21-25° C., 240 days): 0.20 µg/mL
- Stability of Plant-Derived Cannabinoid Compounds in AB Red (stored at 21-25° C., 270 days): 0.20 µg/mL
- Stability of Plant-Derived Cannabinoid Compounds in AB Red (stored at 21-25° C., 300 days): 0.19 µg/mL
- Stability of Plant-Derived Cannabinoid Compounds in AB Red (stored at 21-25° C., 330 days): 0.19 µg/mL
- Stability of Plant-Derived Cannabinoid Compounds in AB Red (stored at 21-25° C., 360 days): 0.19 µg/mL
- Stability of Plant-Derived Cannabinoid Compounds in AB Red (stored at 21-25° C., 390 days): 0.19 µg/mL
- Stability of Plant-Derived Cannabinoid Compounds in AB Red (stored at 21-25° C., 420 days): 0.19 µg/mL
- Stability of Plant-Derived Cannabinoid Compounds in AB Red (stored at 21-25° C., 450 days): 0.19 µg/mL
- Stability of Plant-Derived Cannabinoid Compounds in AB Red (stored at 21-25° C., 480 days): 0.19 µg/mL
- Stability of Plant-Derived Cannabinoid Compounds in AB Red (stored at 21-25° C., 510 days): 0.19 µg/mL
- Stability of Plant-Derived Cannabinoid Compounds in AB Red (stored at 21-25° C., 540 days): 0.19 µg/mL
- Stability of Plant-Derived Cannabinoid Compounds in AB Red (stored at 21-25° C., 570 days): 0.18 µg/mL
